Experimental findings from patent US10479784B2, “Substituted pyrazin-2-amines as inhibitors of ATR kinase” (Vertex Pharmaceuticals Incorporated, priority 2008, dated 2019) are described below.

The target in this assay is full-length ATR (Homo sapiens (Human), UniProt Q13535). The assay can be described thus: ATR Inhibition Assay (radioactive-phosphate incorporation). Type of assay: biochemical. As to conditions: read-out: ATR Ki. The method in brief: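 Ki(app) was derived by non-linear regression of background-corrected initial rates of 33P incorporation into an 800 μM target peptide, read by phosphocellulose filter scintillation counting. Reaction conditions: 5 nM full-length ATR, 10 μM [γ-33P]ATP, pH 7.5 Tris buffer with MgCl2 and DTT, 25 °C, 10-min preincubation, 24 h run.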
Chain of full-length ATR (Q13535 whole entry): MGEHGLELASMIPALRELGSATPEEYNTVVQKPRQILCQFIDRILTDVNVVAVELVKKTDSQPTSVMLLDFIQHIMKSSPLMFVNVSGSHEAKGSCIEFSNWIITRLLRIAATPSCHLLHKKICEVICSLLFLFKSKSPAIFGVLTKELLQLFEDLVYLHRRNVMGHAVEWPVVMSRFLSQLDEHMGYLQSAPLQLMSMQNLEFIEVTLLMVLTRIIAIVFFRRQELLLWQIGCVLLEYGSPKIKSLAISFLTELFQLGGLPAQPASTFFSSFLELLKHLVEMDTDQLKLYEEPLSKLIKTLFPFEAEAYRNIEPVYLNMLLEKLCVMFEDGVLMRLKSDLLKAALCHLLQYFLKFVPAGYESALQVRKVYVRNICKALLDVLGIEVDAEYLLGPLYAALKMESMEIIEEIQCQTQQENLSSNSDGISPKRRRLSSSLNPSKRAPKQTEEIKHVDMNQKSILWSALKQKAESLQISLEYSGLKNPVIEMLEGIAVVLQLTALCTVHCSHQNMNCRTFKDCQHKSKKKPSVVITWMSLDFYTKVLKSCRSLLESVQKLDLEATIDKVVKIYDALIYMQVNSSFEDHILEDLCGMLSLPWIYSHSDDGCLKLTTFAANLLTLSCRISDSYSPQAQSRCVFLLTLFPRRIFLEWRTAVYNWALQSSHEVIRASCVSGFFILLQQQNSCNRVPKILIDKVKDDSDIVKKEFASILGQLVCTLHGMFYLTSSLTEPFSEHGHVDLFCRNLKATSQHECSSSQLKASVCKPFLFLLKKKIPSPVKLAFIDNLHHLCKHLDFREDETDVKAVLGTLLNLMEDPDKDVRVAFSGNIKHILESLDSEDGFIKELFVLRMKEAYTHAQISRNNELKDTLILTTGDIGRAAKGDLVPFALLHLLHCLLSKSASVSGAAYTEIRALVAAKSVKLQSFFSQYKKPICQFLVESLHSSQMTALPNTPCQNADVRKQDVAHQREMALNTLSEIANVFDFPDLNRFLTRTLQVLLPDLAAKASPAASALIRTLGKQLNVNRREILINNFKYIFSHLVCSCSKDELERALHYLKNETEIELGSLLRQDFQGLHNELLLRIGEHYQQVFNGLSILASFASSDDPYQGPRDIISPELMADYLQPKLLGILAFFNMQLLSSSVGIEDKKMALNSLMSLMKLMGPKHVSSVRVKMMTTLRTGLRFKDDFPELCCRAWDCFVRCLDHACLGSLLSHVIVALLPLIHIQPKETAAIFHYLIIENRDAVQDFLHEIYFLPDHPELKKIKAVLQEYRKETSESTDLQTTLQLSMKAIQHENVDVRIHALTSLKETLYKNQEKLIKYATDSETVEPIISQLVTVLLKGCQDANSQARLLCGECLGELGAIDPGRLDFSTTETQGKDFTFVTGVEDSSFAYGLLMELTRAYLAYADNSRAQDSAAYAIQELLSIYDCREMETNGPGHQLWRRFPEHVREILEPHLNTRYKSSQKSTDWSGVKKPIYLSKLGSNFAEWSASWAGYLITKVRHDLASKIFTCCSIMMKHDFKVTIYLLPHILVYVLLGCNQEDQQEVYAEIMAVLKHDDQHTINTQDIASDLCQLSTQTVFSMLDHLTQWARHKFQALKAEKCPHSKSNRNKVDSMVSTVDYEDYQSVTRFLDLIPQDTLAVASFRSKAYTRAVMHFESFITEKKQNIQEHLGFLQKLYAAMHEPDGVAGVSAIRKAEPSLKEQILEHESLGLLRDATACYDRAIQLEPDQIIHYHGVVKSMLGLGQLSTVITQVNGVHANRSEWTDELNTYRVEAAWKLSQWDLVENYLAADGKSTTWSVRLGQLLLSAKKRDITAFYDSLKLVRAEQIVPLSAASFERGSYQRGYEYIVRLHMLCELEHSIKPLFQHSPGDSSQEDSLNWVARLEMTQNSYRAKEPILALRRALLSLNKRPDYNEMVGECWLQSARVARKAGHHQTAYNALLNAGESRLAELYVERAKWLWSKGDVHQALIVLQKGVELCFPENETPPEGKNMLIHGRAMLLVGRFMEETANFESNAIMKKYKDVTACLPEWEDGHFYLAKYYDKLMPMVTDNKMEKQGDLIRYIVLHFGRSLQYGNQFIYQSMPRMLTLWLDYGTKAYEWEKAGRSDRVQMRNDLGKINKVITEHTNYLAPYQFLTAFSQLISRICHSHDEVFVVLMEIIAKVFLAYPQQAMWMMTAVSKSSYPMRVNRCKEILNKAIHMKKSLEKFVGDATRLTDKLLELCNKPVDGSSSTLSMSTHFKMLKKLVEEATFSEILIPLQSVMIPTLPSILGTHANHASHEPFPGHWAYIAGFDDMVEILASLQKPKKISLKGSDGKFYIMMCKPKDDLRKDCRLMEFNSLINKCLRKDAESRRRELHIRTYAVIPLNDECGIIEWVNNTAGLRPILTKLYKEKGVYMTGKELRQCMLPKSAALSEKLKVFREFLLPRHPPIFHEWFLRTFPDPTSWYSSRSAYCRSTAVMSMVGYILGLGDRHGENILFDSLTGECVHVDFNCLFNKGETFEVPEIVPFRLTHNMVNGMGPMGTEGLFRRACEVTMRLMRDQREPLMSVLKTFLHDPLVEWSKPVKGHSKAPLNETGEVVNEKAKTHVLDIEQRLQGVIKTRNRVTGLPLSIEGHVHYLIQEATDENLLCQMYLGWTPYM

Take `CC(C)S(=O)(=O)c1ccc(-c2cnc(N)c(-c3nnc(C4=CCN(C(=O)OC(C)(C)C)CC4)o3)n2)cc1` [IA-95, tert-butyl 4-[5-[3-amino-6-(4-isopropylsulfonylphenyl)pyrazin-2-yl]-1,3,4-oxadiazol-2-yl]-3,6-dihydro-2H-pyridine-1-carboxylate]: the Ki – broadly, the equilibrium dissociation constant of an inhibitor or competing ligand from its target – lay within 100 to 5000 nM.
Next, `CC(C)[S+]([O-])c1ccccc1-c1cnc(N)c(-c2nnc(-c3ccccc3)o2)n1` (stereo not drawn) [IA-136, 5-(2-(isopropylsulfinyl)phenyl)-3-(5-phenyl-1,3,4-oxadiazol-2-yl)pyrazin-2-amine]: 10 to 100 nM; `CN(C)C(=O)c1ccc(-c2cnc(N)c(-c3nnc(Nc4ccccc4C#N)s3)n2)cc1` [IVA-3, 4-[5-amino-6-[5-(2-cyanoanilino)-1,3,4-thiadiazol-2-yl]pyrazin-2-yl]-N,N-dimethyl-benzamide]: 100 to 5000 nM; `CN(C)C(=O)c1ccc(-c2cnc(N)c(-c3nnc(-c4cscn4)o3)n2)cc1` [IA-180, 4-[5-amino-6-(5-thiazol-4-yl-1,3,4-oxadiazol-2-yl)pyrazin-2-yl]-N,N-dimethyl-benzamide]: 10 to 100 nM.
Next, `Nc1ncc(-c2ccc(C(=O)N3CCNC(C(F)(F)F)C3)cc2)nc1-c1nnc(-c2ccccc2)o1` (stereo not drawn) [IA-16]: not above 10 nM; `CNCc1ccc(-c2nnc(-c3nc(-c4ccc(S(=O)(=O)C(C)C)cc4C)cnc3N)o2)cc1` [IA-293, 5-(4-isopropylsulfonyl-2-methyl-phenyl)-3-[5-[4-(methylaminomethyl)phenyl]-1,3,4-oxadiazol-2-yl]pyrazin-2-amine]: not above 10 nM.
Next, `CN(C)c1cccc(NC(=O)c2nc(-c3cccnc3)cnc2N)c1` [Compound I-90, 3-amino-N-(3-(dimethylamino)phenyl)-6-(pyridin-3-yl)pyrazine-2-carboxamide]: 100 to 5000 nM; `CC(C)S(=O)(=O)c1ccc(-c2cnc(N)c(-c3nnc(C(=O)N4CCCC(N)C4)o3)n2)cc1` (stereo not drawn) [IA-98, [5-[3-amino-6-(4-isopropylsulfonylphenyl)pyrazin-2-yl]-1,3,4-oxadiazol-2-yl]-(3-amino-1-piperidyl)methanone]: 10 to 100 nM.
Turning to `CC(C)S(=O)(=O)c1ccc(-c2cnc(N)c(-c3nnc(-c4ccc(CN[C@H](C)CO)cc4F)o3)n2)cc1` [IA-333, (R)-2-(4-(5-(3-amino-6-(4-(isopropylsulfonyl)phenyl)pyrazin-2-yl)-1,3,4-oxadiazol-2-yl)-3-fluorobenzylamino)propan-1-ol], the Ki is not above 10 nM.
The figure for `Nc1ncc(-c2ccc(C(=O)N3CCCNCC3)cc2)nc1C(=O)Nc1ccccc1` [Compound I-43, 6-(4-(1,4-diazepane-1-carbonyl)phenyl)-3-amino-N-phenylpyrazine-2-carboxamide] is 10 to 100 nM; for `Nc1ncc(-c2ccc(C(=O)NC3CCOCC3)cc2)nc1C(=O)Nc1ccccc1` [Compound I-47, 3-amino-N-phenyl-6-(4-(tetrahydro-2H-pyran-4-ylcarbamoyl)phenyl)pyrazine-2-carboxamide] it is 10 to 100 nM; for `Nc1ncc(-c2ccc(C(=O)NCCN3CCCC3)cc2)nc1-c1nc2ccccc2[nH]1` [Compound I-133, 4-(5-amino-6-(1H-benzo[d]imidazol-2-yl)pyrazin-2-yl)-N-(2-(pyrrolidin-1-yl)ethyl)benzamide] it is 10 to 100 nM.
The figure for `CNCc1ccc(-c2nnc(-c3nc(-c4ccc(S(=O)(=O)C(C)CCO)cc4)cnc3N)o2)cc1` (stereo not drawn) [IA-88, 3-[4-[5-amino-6-[5-[4-(methylaminomethyl)phenyl]-1,3,4-oxadiazol-2-yl]pyrazin-2-yl]phenyl]sulfonylbutan-1-ol] is not above 10 nM; for `CC(C)S(=O)(=O)c1ccc(-c2cnc(N)c(-c3nnc(N4CCC(CN)CC4)o3)n2)cc1` [IA-138, 3-[5-[4-(aminomethyl)-1-piperidyl]-1,3,4-oxadiazol-2-yl]-5-(4-isopropylsulfonylphenyl)pyrazin-2-amine] it is 10 to 100 nM.
Turning to `Nc1ncc(-c2ccc(N3CCOCC3)cc2)nc1C(=O)Nc1ccccc1` [Compound I-13, 3-amino-6-(4-morpholinophenyl)-N-phenylpyrazine-2-carboxamide], the Ki was 100 to 5000 nM.
The figure for `CS(=O)(=O)c1ccc(-c2cnc(N)c(-c3nc4cccc(O)c4[nH]3)n2)cc1` [Compound I-109, 2-(3-amino-6-(4-(methylsulfonyl)phenyl)pyrazin-2-yl)-1H-benzo[d]imidazol-7-ol] is not above 10 nM; for `CC(C)S(=O)(=O)c1ccc(-c2cnc(N)c(-c3nnc(-c4ccc(CNCCN(C)C)cc4)o3)n2)cc1` [IA-225, N-[[4-[5-[3-amino-6-(4-isopropylsulfonylphenyl)pyrazin-2-yl]-1,3,4-oxadiazol-2-yl]phenyl]methyl]-N′,N′-dimethyl-ethane-1,2-diamine] it is 10 to 100 nM; for `CC(C)S(=O)(=O)c1ccc(-c2cnc(N)c(-c3nnc(-c4ccc5c(c4)CCNC5)o3)n2)cc1` [IA-145, 5-(4-isopropylsulfonylphenyl)-3-[5-(1,2,3,4-tetrahydroisoquinolin-6-yl)-1,3,4-oxadiazol-2-yl]pyrazin-2-amine] it is not above 10 nM.
The figure for `COc1cc(-c2cnc(N)c(C(=O)Nc3ccccc3)n2)ccn1` [Compound I-38, 3-amino-6-(2-methoxypyridin-4-yl)-N-phenylpyrazine-2-carboxamide] is 10 to 100 nM.
As to `CN(C)C(=O)c1ccc(-c2cnc(N)c(-c3nnc(-c4cccc(N)c4)o3)n2)cc1` [IA-142, 4-[5-amino-6-[5-(3-aminophenyl)-1,3,4-oxadiazol-2-yl]pyrazin-2-yl]-N,N-dimethyl-benzamide], the Ki was not above 10 nM.
Consider `CC(=O)Nc1ccc(NC(=O)c2nc(-c3cccnc3)cnc2N)cc1` [Compound I-93, 3-amino-N-(4-ethanamidophenyl)-6-(pyridin-3-yl)pyrazine-2-carboxamide], for which the Ki was 100 to 5000 nM.
Take `CN(C)C(=O)c1ccc(-c2cnc(N)c(-c3nnc(-c4ccccc4)s3)n2)c(C#N)c1` [IVA-1, 4-[5-amino-6-(5-phenyl-1,3,4-thiadiazol-2-yl)pyrazin-2-yl]-3-cyano-N,N-dimethyl-benzamide]: the Ki was not above 10 nM.
The figure for `CN(C)C(=O)c1ccc(-c2cnc(N)c(-c3nnc(-c4ccccc4OCCO)o3)n2)cc1` [IA-196, 4-[5-amino-6-[5-[2-(2-hydroxyethoxy)phenyl]-1,3,4-oxadiazol-2-yl]pyrazin-2-yl]-N,N-dimethyl-benzamide] is not above 10 nM; for `CN(C)c1ccccc1-c1cnc(N)c(-c2nnc(-c3ccccc3)o2)n1` [IA-94, 5-(2-(dimethylamino)phenyl)-3-(5-phenyl-1,3,4-oxadiazol-2-yl)pyrazin-2-amine] it is 100 to 5000 nM; for `Nc1ncc(-c2ccc(C(=O)NCCO)cc2)nc1-c1nc2ccccc2[nH]1` [Compound I-132, 4-(5-amino-6-(1H-benzo[d]imidazol-2-yl)pyrazin-2-yl)-N-(2-hydroxyethyl)benzamide] it is 10 to 100 nM.
Regarding `CC(=O)Nc1ccc(-c2cnc(N)c(-c3nnc(-c4ccccc4)o3)n2)cc1` [IA-247, N-[4-[5-amino-6-(5-phenyl-1,3,4-oxadiazol-2-yl)pyrazin-2-yl]phenyl]acetamide], the Ki fell in the range of 10 to 100 nM.
Next, `CC(C)(C)OC(=O)NCC[S+]([O-])c1ccccc1-c1cnc(N)c(-c2nnc(-c3ccccc3)o2)n1` (stereo not drawn) [IA-164, tert-butyl N-[2-[2-[5-amino-6-(5-phenyl-1,3,4-oxadiazol-2-yl)pyrazin-2-yl]phenyl]sulfinylethyl]carbamate]: 100 to 5000 nM.
